Measured values published in patent US9708259B2 (Hoffmann-La Roche Inc., priority 2013, dated 2017).
Positions count from the first letter of the chain named. Like-named read-outs stand apart in the source and are kept apart here.

Assays:
ratM1 = target: T1, ratM1 (Rattus norvegicus, UniProt P08482); assay: M1 PAM assay (FLIPR intracellular calcium), rat M1; assay type: cell-based
T1 construct: expressed in transfected cells; host or cells: CHO cells (stated generally for the assay, not specifically for rat M1)
T1 sequence (P08482 1-460): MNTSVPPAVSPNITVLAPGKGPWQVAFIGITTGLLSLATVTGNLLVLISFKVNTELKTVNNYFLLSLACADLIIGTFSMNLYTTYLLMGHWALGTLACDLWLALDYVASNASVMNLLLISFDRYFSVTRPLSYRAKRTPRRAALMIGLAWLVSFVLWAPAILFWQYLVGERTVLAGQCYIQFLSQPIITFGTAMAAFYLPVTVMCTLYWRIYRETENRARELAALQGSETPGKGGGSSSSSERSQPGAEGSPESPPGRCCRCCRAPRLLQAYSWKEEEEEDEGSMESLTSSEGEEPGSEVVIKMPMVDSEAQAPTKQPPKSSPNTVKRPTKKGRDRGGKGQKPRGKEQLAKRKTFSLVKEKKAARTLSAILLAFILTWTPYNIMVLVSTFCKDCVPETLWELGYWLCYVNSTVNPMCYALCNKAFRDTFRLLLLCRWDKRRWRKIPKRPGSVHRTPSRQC

human M1 = target: T2, human M1 (Homo sapiens, UniProt P11229); assay: M1 PAM assay (FLIPR intracellular calcium), human M1; assay type: cell-based
T2 construct: expressed in transfected cells; host or cells: CHO cells
T2 sequence (P11229 1-460): T1 sequence (P08482 1-460) with V5A, S254T, S309P, K320R, G337A, V413I
Outline: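 CHO cells expressing M1, Fluo-4AM-loaded, in HEPES/probenecid HBSS pH 7.4, 1% DMSO final. Compounds pre-incubated 2 min for agonist activity versus 30 nM acetylcholine control. For PAM activity, acetylcholine EC20 added after the 2 min pre-incubation, then 2 min more before FLIPR intracellular Ca2+ read.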

[1] = rat M1, FLIPR Ca2+, second value of the cell, read-out: ratM1 EC50
[2] = CHO human M1 cells, FLIPR Ca2+, with EC20 of acetylcholine, first value of the cell, read-out: hM1 EC50

SMILES	EC50 (ratM1; [1]) [µM]	EC50 (human M1; [2]) [µM]	EC50 (ratM1) [µM]	EC50 (human M1) [µM]
O=C(N[C@H]1CCCC[C@@H]1O)c1cn(Cc2ccc(-c3nccs3)cn2)c2cccc(F)c12 [Example 141, 4-fluoro-N-((1S,2S)-2-hydroxycyclohexyl)-1-((5-(thiazol-2-yl)pyridin-2-yl)methyl)-1H-indole-3-carboxamide]	0.453	0.155		
CNC(=O)c1ccc(Cn2cc(C(=O)NC3CCOCC3)c3c(F)cccc32)c(F)c1 [Example 164, 4-Fluoro-1-(2-fluoro-4-(methylcarbamoyl)benzyl)-N-(tetrahydro-2H-pyran-4-yl)-1H-indole-3-carboxamide]	0.088	0.048		
Cn1cc(-c2ccc(Cn3nc(C(=O)N[C@H]4CCCC[C@@H]4O)c4c(F)ccc(F)c43)c(F)c2)cn1 [Example 72, 4,7-difluoro-1-(2-fluoro-4-(1-methyl-1H-pyrazol-4-yl)benzyl)-N-((1S,2S)-2-hydroxycyclohexyl)-1H-indazole-3-carboxamide]	0.133	0.0428		
Cn1cc(-c2ccc(Cn3cc(C(=O)N[C@H]4CCCC[C@@]4(C)O)c4c(F)cccc43)c(F)c2)cn1 (racemic) [Example 23, 4-fluoro-1-(2-fluoro-4-(1-methyl-1H-pyrazol-4-yl)benzyl)-N-((1SR,2RS)-2-hydroxy-2-methylcyclohexyl)-1H-indole-3-carboxamide]	0.0258	0.0149		
O=C(N[C@H]1CCCC[C@@H]1O)c1cn(Cc2ccc(-c3cccnc3)cc2)c2cccc(F)c12 [Example 159, 4-Fluoro-N-((1S,2S)-2-hydroxycyclohexyl)-1-(4-(pyridin-3-yl)benzyl)-1H-indole-3-carboxamide]	0.047	0.02		
Cn1cc(-c2ccc(Cn3cc(C(=O)NC4CCOCC4O)c4c(F)c(F)c(F)c(F)c43)cc2)cn1 (single isomer, unassigned) [Example 62, 4,5,6,7-Tetrafluoro-N-((3S,4R) or (3R,4S))-3-hydroxytetrahydro-2H-pyran-4-yl)-1-(4-(1-methyl-1H-pyrazol-4-yl)benzyl)-1H-indole-3-carboxamide]	0.563	0.433		
CNC(=O)c1ccc(Cn2cc(C(=O)NC3CCOC(C)(C)C3)c3c(F)cccc32)cc1 (centres unmarked) [Example 119, N-(2,2-dimethyloxan-4-yl)-4-fluoro-1-[[4-(methylcarbamoyl)phenyl]methyl]indole-3-carboxamide]	0.012	0.006		
O=C(N[C@H]1CCCC[C@@H]1O)c1cn(CC2CCN(c3ccncn3)CC2)c2cccc(F)c12 [Example 143, 4-fluoro-N-((1S,2S)-2-hydroxycyclohexyl)-1-((1-(pyrimidin-4-yl)piperidin-4-yl)methyl)-1H-indole-3-carboxamide]	1.07	0.409		
Cn1cc(-c2ccc(Cn3cc(C(=O)NCC4CCO4)c4c(F)cccc43)cc2)cn1 (centres unmarked) [Example 14, 4-fluoro-1-(4-(1-methyl-1H-pyrazol-4-yl)benzyl)-N-(oxetan-2-ylmethyl)-1H-indole-3-carboxamide]	0.198	0.121		
Cn1cc(-c2ccc(Cn3cc(C(=O)N[C@H]4CCCC[C@]4(C)O)c4c(F)cccc43)c(F)c2)cn1 (racemic) [Example 18, 4-fluoro-1-(2-fluoro-4-(1-methyl-1H-pyrazol-4-yl)benzyl)-N-((1SR,2SR)-2-hydroxy-2-methylcyclohexyl)-1H-indole-3-carboxamide]	0.185	0.0612		
Cn1cc(-c2ccc(Cn3cc(C(=O)N[C@H]4CCCC[C@@H]4O)c4c(F)c(F)ccc43)cn2)cn1 [Example 58, 4,5-difluoro-N-((1S,2S)-2-hydroxycyclohexyl)-1-((6-(1-methyl-1H-pyrazol-4-yl)pyridine-3-yl)methyl)-1H-indole-3-carboxamide]	10	0.174		
Cc1ccc(F)c2c(C(=O)NC3CCCOC3)cn(Cc3ccc(-c4cnn(C)c4)cc3)c12 (centres unmarked) [Example 48, 4-fluoro-7-methyl-1-(4-(1-methyl-1H-pyrazol-4-yl)benzyl)-N-(tetrahydro-2H-pyran-3-yl)-1H-indole-3-carboxamide]	0.528	0.251		
Cn1cc(-c2ccc(Cn3cc(C(=O)N[C@H]4CCOC[C@@H]4O)c4c(F)c(F)c(F)c(F)c43)c(F)c2)cn1 (single isomer, unassigned) [Example 64, 4,5,6,7-Tetrafluoro-1-(2-fluoro-4-(1-methyl-1H-pyrazol-4-yl)benzyl)-N-((3R,4S) or (3S,4R))-3-hydroxytetrahydro-2H-pyran-4-yl)-1H-indole-3-carboxamide]	0.0799	0.0547		
O=C(N[C@H]1CCCC[C@@H]1O)c1cn(Cc2ccc(N3CCCC3)cc2)c2cccc(F)c12 [Example 161, 4-fluoro-N-((1S,2S)-2-hydroxycyclohexyl)-1-(4-(pyrrolidin-1-yl)benzyl)-1H-indole-3-carboxamide]	0.307	0.121		
Cn1cc(-c2ccc(Cn3cc(C(=O)N[C@@H]4CCCC(F)(F)[C@H]4O)c4c(F)cccc43)c(F)c2)cn1 [Example 102, N-((1R,2S)-3,3-difluoro-2-hydroxycyclohexyl)-4-fluoro-1-(2-fluoro-4-(1-methyl-1H-pyrazol-4-yl)benzyl)-1H-indole-3-carboxamide]	0.088	0.029		
CNC(=O)c1ccc(Cn2cc(C(=O)NC3CC3)c3c(F)cccc32)cc1 [Example 111, N-cyclopropyl-4-fluoro-1-[[4-(methylcarbamoyl)phenyl]methyl]indol-3-carboxamide]	0.408	0.127		
Cn1cc(-c2ccc(Cn3cc(C(=O)NC4CCCOC4)c4c(F)cccc43)c(F)c2)cn1 (centres unmarked) [Example 19, 4-fluoro-1-(2-fluoro-4-(1-methyl-1H-pyrazol-4-yl)benzyl)-N-(tetrahydro-2H-pyran-3-yl)-1H-indole-3-carboxamide]	0.579	0.229		
Cn1cc(-c2ccc(Cn3cc(C(=O)N[C@@H]4CCCC[C@H]4O)c4c(F)cccc43)c(F)c2)cn1 [Example 2]	0.208	0.039		
Cn1cc(-c2ccc(Cn3cc(C(=O)NC4CCCCC4)c4c(F)cccc43)c(F)c2)cn1 [Example 20, N-cyclohexyl-4-fluoro-1-(2-fluoro-4-(1-methyl-1H-pyrazol-4-yl)benzyl)-1H-indole-3-carboxamide]	0.425	0.204		
N#Cc1ccc(Cn2cc(C(=O)N[C@H]3CCOC[C@@H]3O)c3c(F)cccc32)cc1 (single isomer, unassigned) [Example 54, 1-(4-cyanobenzyl)-4-fluoro-N-((3R,4S) or (3S,4R)-3-hydroxytetrahydro-2H-pyran-4-yl)-1H-indole-3-carboxamide]			0.122	0.0696
CNC(=O)c1ccc(Cn2cc(C(=O)NC3CCCC(F)(F)C3)c3c(F)cccc32)cc1F (centres unmarked) [Example 130, N-(3,3-difluorocyclohexyl)-4-fluoro-1-(3-fluoro-4-(methylcarbamoyl)benzyl)-1H-indole-3-carboxamide]	0.058	0.034		
O=C(N[C@H]1CCCC[C@@H]1O)c1cn(Cc2ccn3ccnc3c2)c2cccc(F)c12 [Example 144, 4-fluoro-N-((1S,2S)-2-hydroxycyclohexyl)-1-(imidazo[1,2-a]pyridin-7-ylmethyl)-1H-indole-3-carboxamide]			0.172	0.07
Cn1ncc2cc(Cn3cc(C(=O)N[C@H]4CCCC[C@@H]4O)c4c(F)cccc43)ccc21 [Example 37, 4-fluoro-N-((1S,2S)-2-hydroxycyclohexyl)-1-((1-methyl-1H-indazol-5-yl)methyl)-1H-indole-3-carboxamide]			0.0395	0.0438
Cc1ccn(-c2ccc(Cn3cc(C(=O)N[C@H]4CCCC[C@@H]4O)c4c(F)c(F)ccc43)cc2)n1 [Example 61, 4,5-difluoro-N-((1S,2S)-2-hydroxycyclohexyl)-1-(4-(3-methyl-1H-pyrazol-1-yl)benzyl)-1H-indole-3-carboxamide]	0.515	0.343		
CNC(=O)c1ccc(Cn2cc(C(=O)NC3CCSCC3)c3c(F)cccc32)cc1 [Example 124, 4-fluoro-1-[[4-(methylcarbamoyl)phenyl]methyl]-N-(thian-4-yl)indole-3-carboxamide]	0.024	0.011		
